The test relates to BDF1 mice, P388 leukemia ip, median survival T/C. As to the kind of experiment: NCI In Vivo Anticancer Drug Screen. Data for tumor model P388 Leukemia (intraperitoneal) in B6D2F1 (BDF1) mice. The settings on record: endpoint: median survival time, higher = longer survival. The essentials: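 Each value expresses how treatment altered survival: treated-mouse outcome over vehicle-mouse outcome, both groups bearing the transplanted tumour.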

Where [1] appears, read: dose: 12.0 mg/kg/injection, schedule: Q04DX003 (ip), vehicle: Klucel (hydroxypropylcellulose) (HPC).
The mark [2] stands for this setting: dose: 50.0 mg/kg/injection, schedule: Q01DX009 (ip), vehicle: saline with Tween-80.
Setting [3] is: dose: 100.0 mg/kg/injection, schedule: Q01DX009 (ip), vehicle: saline with Tween-80.
[4] abbreviates: dose: 200.0 mg/kg/injection, schedule: Q01DX009 (ip), vehicle: saline with Tween-80.
[5] abbreviates: dose: 100.0 mg/kg/injection, schedule: Q04DX003 (ip), vehicle: saline with Tween-80.
[6] abbreviates: dose: 200.0 mg/kg/injection, schedule: Q04DX003 (ip), vehicle: saline with Tween-80.
The mark [7] stands for this setting: dose: 400.0 mg/kg/injection, schedule: Q04DX003 (ip), vehicle: saline with Tween-80.
Setting [8] is: dose: 400.0 mg/kg/injection, schedule: Q01DX009 (ip), vehicle: saline with Tween-80.
Where [9] appears, read: dose: 200.0 mg/kg/injection, schedule: Q04DX003 (ip), vehicle: Klucel (hydroxypropylcellulose) (HPC).
[10] abbreviates: dose: 400.0 mg/kg/injection, schedule: Q01DX009 (ip), vehicle: Klucel (hydroxypropylcellulose) (HPC).
Setting [11] is: dose: 400.0 mg/kg/injection, schedule: Q04DX003 (ip), vehicle: Klucel (hydroxypropylcellulose) (HPC).
Setting [12] is: dose: 100.0 mg/kg/injection, schedule: Q01DX009 (ip), vehicle: Klucel (hydroxypropylcellulose) (HPC).
[13] abbreviates: dose: 100.0 mg/kg/injection, schedule: Q04DX003 (ip), vehicle: Klucel (hydroxypropylcellulose) (HPC).
Setting [14] is: dose: 200.0 mg/kg/injection, schedule: Q01DX009 (ip), vehicle: Klucel (hydroxypropylcellulose) (HPC).

“And” between values parts separate entries of the source, which are not always exact repeats. Identical values can stand only once. Inconclusive results and toxic doses are left out. Residues, ends and D or L forms follow the SMILES beside them.

Consider 18 molecules from PubChem BioAssay AID328 (DTP/NCI, 2004).

For the molecule `C=C1C(=O)OC2/C=C(\C)CC(O)/C=C(/C)CC(OC(=O)C(O)(CO)C(C)S)C12` (stereo unspecified), the T/C is, setting by setting: (dose: 100.0 mg/kg/injection, schedule: Q04DX002 (ip), vehicle: Klucel (hydroxypropylcellulose) (HPC)) 120 % of control; (dose: 200.0 mg/kg/injection, schedule: Q04DX002 (ip), vehicle: Klucel (hydroxypropylcellulose) (HPC)) 118 % of control.
As for `C#CC[As+](c1ccccc1)(c1ccccc1)c1ccccc1`, the T/C runs as follows: (dose: 3.0 mg/kg/injection, schedule: Q01DX009 (ip), vehicle: Klucel (hydroxypropylcellulose) (HPC)) 121 % of control; (dose: 5.3 mg/kg/injection, schedule: Q04DX003 (ip), vehicle: Klucel (hydroxypropylcellulose) (HPC)) 117 % of control; under setting [1], 104 % of control and 113 % of control; (dose: 25.0 mg/kg/injection, schedule: Q04DX003 (ip), vehicle: Klucel (hydroxypropylcellulose) (HPC)) 109 % of control.
Regarding `CCC[n+]1ccc(/C=N\NC(N)=S)c2ccccc21`, the T/C runs as follows: (dose: 25.0 mg/kg/injection, schedule: Q01DX009 (ip), vehicle: saline with Tween-80) 94 % of control; under setting [2], 103 % of control; under setting [3], 122 % of control; under setting [4], 122 % of control.
With `O=C(O)c1ccccc1NSc1ccccc1[N+](=O)[O-]`, the T/C is, setting by setting: under setting [2], 97 % of control; under setting [3], 109 % of control; under setting [4], 111 % of control.
On to `O=C(Nc1cccc(Cl)c1)N1c2ccccc2SC1c1ccco1` (stereo unspecified), for which the T/C was 91 % of control under setting [2], 107 % of control under setting [3] and 109 % of control under setting [4].
With `CN(C)C(=S)S`, the T/C is, setting by setting: (dose: 50.0 mg/kg/injection, schedule: Q04DX003 (ip), vehicle: saline) 103 % of control; (dose: 100.0 mg/kg/injection, schedule: Q04DX003 (ip), vehicle: saline) 103 % of control; (dose: 200.0 mg/kg/injection, schedule: Q04DX003 (ip), vehicle: saline) 105 % of control; (dose: 400.0 mg/kg/injection, schedule: Q04DX003 (ip), vehicle: saline) 117 % of control.
In the case of `C[C@]12CC[C@H]3[C@@H](CC[C@]4(O)C[C@@H](O)CC[C@]34/C=N/O)[C@@]1(O)CC[C@@H]2C1=COC(=O)C1`, the T/C was 94 % of control (dose: 1.87 mg/kg/injection, schedule: Q01DX010 (ip), vehicle: carboxymethylcellulose (CMC)); 100 % of control (dose: 3.75 mg/kg/injection, schedule: Q01DX010 (ip), vehicle: carboxymethylcellulose (CMC)); 111 % of control (dose: 7.5 mg/kg/injection, schedule: Q01DX010 (ip), vehicle: carboxymethylcellulose (CMC)); 116 % of control (dose: 15.0 mg/kg/injection, schedule: Q01DX010 (ip), vehicle: carboxymethylcellulose (CMC)); 111 % of control (dose: 30.0 mg/kg/injection, schedule: Q01DX010 (ip), vehicle: carboxymethylcellulose (CMC)); 122 % of control (dose: 60.0 mg/kg/injection, schedule: Q01DX010 (ip), vehicle: carboxymethylcellulose (CMC)).
Consider `COC(=O)c1cc2ccccc2o1`, for which the T/C was 95 % of control under setting [5], 95 % of control under setting [6] and 91 % of control under setting [7].
As for `OC(CCl)COCC#Cc1ccccc1` (stereo unspecified), the T/C by setting is: (dose: 25.0 mg/kg/injection, schedule: Q04DX003 (ip), vehicle: saline with Tween-80) 105 % of control; (dose: 50.0 mg/kg/injection, schedule: Q04DX003 (ip), vehicle: saline with Tween-80) 100 % of control; under setting [3], 95 % of control; under setting [5], 115 % of control; under setting [4], 112 % of control; under setting [6], 95 % of control. Further, the T/C by setting is: under setting [8], 116 % of control; under setting [7], 95 % of control.
Consider `Brc1cnc(OCc2ccccc2)nc1OCc1ccccc1`, for which the T/C is 103 % of control under setting [3]; 104 % of control under setting [5]; 103 % of control under setting [4]; 104 % of control under setting [6]; 107 % of control under setting [8]; 108 % of control under setting [7].
Take `CC(C)C(N)C(=O)NC(CO)C(=O)O` (stereo not drawn) (H-Val-Ser-OH; configuration not given here): the T/C is, setting by setting: (dose: 50.0 mg/kg/injection, schedule: Q01DX005 (ip), vehicle: saline) 99 % of control; (dose: 100.0 mg/kg/injection, schedule: Q01DX005 (ip), vehicle: saline) 106 % of control; (dose: 200.0 mg/kg/injection, schedule: Q01DX005 (ip), vehicle: saline) 92 % of control.
Take `Cc1cc(N)c2cc(NC(=O)CCCCCCCCC(=O)Nc3ccc4nc(C)cc(N)c4c3)ccc2n1`: the T/C is 108 % of control (dose: 5.5 mg/kg/injection, schedule: Q01DX009 (ip), vehicle: Klucel (hydroxypropylcellulose) (HPC)); 121 % of control (dose: 8.2 mg/kg/injection, schedule: Q01DX009 (ip), vehicle: Klucel (hydroxypropylcellulose) (HPC)); 91 % of control (dose: 8.3 mg/kg/injection, schedule: Q04DX003 (ip), vehicle: Klucel (hydroxypropylcellulose) (HPC)); 104 % of control under setting [1]; 150 % of control (dose: 45.0 mg/kg/injection, schedule: Q04DX003 (ip), vehicle: Klucel (hydroxypropylcellulose) (HPC)); 186 % of control (dose: 50.0 mg/kg/injection, schedule: Q01DX009 (ip), vehicle: Klucel (hydroxypropylcellulose) (HPC)). Moreover, the T/C is, setting by setting: (dose: 80.0 mg/kg/injection, schedule: Q04DX003 (ip), vehicle: Klucel (hydroxypropylcellulose) (HPC)) 168 % of control; (dose: 100.0 mg/kg/injection, schedule: Q04DX003 (ip), vehicle: other) 172 % of control; (dose: 120.0 mg/kg/injection, schedule: Q04DX003 (ip), vehicle: Klucel (hydroxypropylcellulose) (HPC)) 172 % of control; (dose: 180.0 mg/kg/injection, schedule: Q04DX003 (ip), vehicle: Klucel (hydroxypropylcellulose) (HPC)) 177 % of control; under setting [9], 150 % of control; (dose: 200.0 mg/kg/injection, schedule: Q04DX003 (ip), vehicle: other) 181 % of control. Also, the T/C reads like this: (dose: 264.0 mg/kg/injection, schedule: Q04DX003 (ip), vehicle: Klucel (hydroxypropylcellulose) (HPC)) 227 % of control; under setting [10], 160 % of control; under setting [11], 261 % of control and 160 % of control; (dose: 400.0 mg/kg/injection, schedule: Q04DX003 (ip), vehicle: other) 186 % of control.
On to `CCCCC(=O)c1ccc(F)cc1`, for which the T/C runs as follows: under setting [12], 95 % of control; under setting [13], 91 % of control; under setting [14], 104 % of control; under setting [9], 104 % of control; under setting [10], 109 % of control; under setting [11], 91 % of control.
Consider `COc1ccc(CC#N)c(OCc2ccccc2)c1`, for which the T/C (dose: 12.5 mg/kg/injection, schedule: Q01DX009 (ip), vehicle: other) is 104 % of control; the T/C (dose: 25.0 mg/kg/injection, schedule: Q01DX009 (ip), vehicle: other) is 102 % of control; the T/C (dose: 50.0 mg/kg/injection, schedule: Q01DX009 (ip), vehicle: other) is 98 % of control; the T/C (dose: 100.0 mg/kg/injection, schedule: Q01DX009 (ip), vehicle: other) was 89 % of control; the T/C (dose: 200.0 mg/kg/injection, schedule: Q01DX009 (ip), vehicle: other) was 95 % of control.
For `O=S(=O)(Nc1ccc(C(F)(F)F)cc1)c1ccc(C(F)(F)F)cc1`, the T/C was 90 % of control (dose: 50.0 mg/kg/injection, schedule: Q04DX003 (ip), vehicle: Klucel (hydroxypropylcellulose) (HPC)) and 90 % of control under setting [13].
As to `NC12CC3CC(CC(C3)C1)C2`, the T/C is 100 % of control (dose: 25.0 mg/kg/injection, schedule: Q01DX010 (ip), vehicle: saline); 100 % of control (dose: 50.0 mg/kg/injection, schedule: Q01DX010 (ip), vehicle: saline); 100 % of control (dose: 100.0 mg/kg/injection, schedule: Q01DX010 (ip), vehicle: saline).
As to `O=C(c1ccccc1)c1c2ccccc2c(-c2ccccc2)c2ccccc12`, the T/C runs as follows: under setting [12], 100 % of control; under setting [13], 91 % of control; under setting [14], 100 % of control; under setting [9], 87 % of control; under setting [10], 111 % of control; under setting [11], 95 % of control.
For `CC(=O)OCCC/C(=C/c1cc2ccccc2c2ccccc12)[N+](=O)[O-]`, the T/C is, setting by setting: under setting [12], 115 % of control; under setting [14], 120 % of control.
